Test results: US11857531B2, “Combination mast cell inhibition for treatment of BPH/LUTS” (Northwestern University, priority 2020, dated 2024)
Where a name gives a salt, the structure may show the parent alone.

System: IL-4, IL-13, STAT-6, IFNγ, IL-17a, IL-10 mRNA in prostates of CP1 infected mice
Assay: qPCR for cytokine transcripts in prostates
Type: in vivo, C57BL/6 mice
Conditions: late, day 35 post CP1 infection; single drug or combination; CrS 0.5 mg/kg, CeHCl 2.5 mg/kg i.p. daily 10 days
Procedure: The prostates were harvested from mice after euthanizing as described previously (32). Depending on the experimental design, each prostate sample (separated by lobes) were either fixed in 10% formalin or frozen at −80° C. in TRIzol™ reagent (Life Technologies Corporation, Grand Island, NY, USA), or frozen at −80° C. in 1×RIPA (Santa Cruz Biotechnology, Dallas, TX, USA) containing complete-EDTA protease inhibitor cocktail and phosSTOP phosphatase inhibitor (Millipore-Sigma, Burlington, MA, USA), or processed for tissue digestion for flow cytometry. Formalin samples were further processed and embedded in paraffin. The formalin-fixed paraffin-embedded (FFPE) samples were then sectioned (5 μm sections) and mounted on glass slides for staining. […] Following voiding behavior testing on days 14 or 35 [“early treatment” or “late treatment” groups respectively], mice were euthanized and tissues were prepared as described above. Total RNA was isolated using TRIzol™ reagent (Life Technologies Corporation, Grand Island, NY, USA), and cDNA synthesis, starting with 1 μg of total RNA, was performed with random hexamers using High-Capacity cDNA Reverse Transcription Kit (Life Technologies Corporation, Grand Island, NY, USA) per the manufacturer's instructions. Primers for quantitative PCR (qPCR) were created for the RNA of interest using the NIH online primer blast tool. Reverse Transcription-Quantitative Polymerase Chain Reaction (RT-qPCR) reactions were performed using SsoAdvanced™ universal SYBR® green (Bio-Rad, Hercules, CA, USA) and run on the CFX Connect (Bio-Rad, Hercules, CA, USA) platform. A full table of primer sequences is included in Table 1. The data were analyzed by the 2^−ΔΔCT method (38), and normalized to GAPDH as the housekeeping gene. The data are represented as fold change normalized to the average expression of the gene of interest in their respective control group.

O=C(O)COCCN1CCN(C(c2ccccc2)c2ccc(Cl)cc2)CC1 (stereo not shown) [CeHCl, cetirizine di-hydrochloride]
IL-4 gene expression in prostates of CP1-infected mice (FIG. 12): reduced the gene expression levels of IL-4 and IL-13 to a modest but non-significant levels
IL-13 gene expression in prostates of CP1-infected mice (FIG. 12): reduced the gene expression levels of IL-4 and IL-13 to a modest but non-significant levels

O=C([O-])c1cc(=O)c2c(OCC(O)COc3cccc4oc(C(=O)[O-])cc(=O)c34)cccc2o1.[Na+].[Na+] [CrS, cromolyn sodium]
IL-4 gene expression in prostates of CP1-infected mice (FIG. 12): reduced the gene expression levels of IL-4 and IL-13 to negligible levels
IL-13 gene expression in prostates of CP1-infected mice (FIG. 12): reduced the gene expression levels of IL-4 and IL-13 to negligible levels
